The subject of the experiment is HIV. In words: HIV-p24 antigen in culture supernatant of HIV-infected mitogen-derived blast cells of PBMC. It counts as cell-based. To be noted: for Amount of HIV-p24 antigen: PHA-activated PBMC blast cells, culture supernatant. How it is done: The cytotoxicity of SBA against the A3.01 cells, at a high SBA concentration of 1000 µg of SBA/ml, was such that the rate of survival of said cells was about 70%. The above results of testing the cytotoxicity of SBA indicate that the cytotoxicity of SBA against the above various cells is fairly low. On the other hand, with the HIV-infected A3.01 cells, it is seen that the presence of SBA at concentrations in a range of from 500 to 800 µg of SBA/ml gives the rate of survival of the HIV-infected A3.01 cells at a level as low as 3-24%. […] (b) Tests of examining the inhibitory activities of SBA against infestion of HIV to mitogen-derived blast cells of human periphery blood monocytic cell (PBMC) and against proliferation of HIV in the HIV-infected blast cells of PMBC as well as against replication of the viral particles of HIV in the HIV-infected blast cells of PBMC, where HIV was made to infest the blast cells of PBMC of which the blastogenesis has been induced by a mitogen. Such blast cells of PBMC, which were blastogenetically transformed by activation with PHA […] as a mitogen, were cultivated and then made to be infested with HIV either by inoculation of HIV or by inoculation of HIV which had been pretreated with SBA. The HIV-infected cells so obtained continued further to be incubated in the culture media containing different concentrations of SBA. Then, the supernatant of the resulting cultures was separated, and the amount of the viral particles of HIV as released in the supernatant so obtained was measured. This measurement of the released amount of the viral particles of HIV was made by determining the amount of HIV-p24 antigen, i.e. a structural protein of HIV, existing in the supernatant, as a substitute index which can represent the amount of the viral particles of HIV so released in said supernatant.

Where a name gives a salt, the structure may show the parent alone.

Take `O=C1O[C@H]([C@@H]2COC(c3ccccc3)O2)C(O)=C1O` (stereo partly drawn) [SBA, 5,6-O-benzylidene-L-ascorbic acid mono-sodium salt]: the “inhibition of the replication of the viral particles of HIV (in words)” value (PBMC blast cells infected with the SBA-pretreated HIV, cultivated in the presence of SBA) is on record as “no appreciable effect of SBA to inhibit the replication of the viral particles of HIV can be observed”. The “Amount of HIV-p24 antigen” value by setting is: (SBA 10 µg/ml, cells as infected with HIV) 1500 pg/mL; (SBA 10 µg/ml, cells as infected with the SBA-pretreated HIV) 1240 pg/mL; (SBA 50 µg/ml, cells as infected with HIV) 1400 pg/mL; (SBA 50 µg/ml, cells as infected with the SBA-pretreated HIV) 1520 pg/mL; (SBA 100 µg/ml, cells as infected with HIV) 380 pg/mL; (SBA 100 µg/ml, cells as infected with the SBA-pretreated HIV) 1430 pg/mL. Also, the “inhibition of the production of the HIV antigen (in words)” value (SBA 100 µg/ml, PHA-activated PBMC blast cells infested with HIV) is on record as “exhibited an effective activity inhibitory to the production of the HIV antigen”.
